Data set [1] has as its target T1, 5-hydroxytryptamine receptor 4 (Homo sapiens, UniProt Q13639). The data set is described as follows: Displacement of [3H]-GR 113808 from recombinant human brain 5HT4 receptor measured after 60 mins by radio ligand binding assay. (In general: In a radioligand displacement assay an active substance lowers the binding of a labelled ligand.)
Data set [2] addresses T1, 5-hydroxytryptamine receptor 4. The data set is described as follows: Partial agonist activity at human HA-tagged 5HT4 receptor expressed in COS7 cells assessed as induction of cAMP production measured after 10 mins by HTRF assay. Type of data set: functional, cell-based. On the technique in general: Changes in cAMP serve as a functional read-out for many G protein-coupled receptors.

Data set [3] is described as follows: Antioxidant activity assessed as DPPH radical scavenging activity measured after 120 mins. The class given is functional.
The nature of data set [4]: Antioxidant activity assessed as […] radical scavenging activity preincubated for 30 mins followed by AAPH addition and measured every minute for 2 hrs by ORAC fluorescein assay relative to trolox. The class given is functional.
In data set [5] the test system is SH-SY5Y. Put plainly: Cytotoxicity against human SH-SY5Y cells assessed as reduction in cell viability at 0.5 to 10 uM after 24 hrs by MTT assay relative to control. The class given is cell-based. On the technique in general: Tetrazolium dyes change colour on reduction, which living cells bring about.
Data set [6] concerns the target T1, 5-hydroxytryptamine receptor 4. Put plainly: Agonist activity at human HA-tagged 5HT4 receptor expressed in COS7 cells assessed as induction of cAMP production measured after 10 mins by HTRF assay relative to control. The class given is functional, cell-based.
For data set [7] the target is unchanged. The data set is described as follows: Binding affinity to recombinant human brain 5HT4 receptor by radio ligand binding assay.
The subject of data set [8] is SH-SY5Y. The data set is described as follows: Antioxidant activity in human SH-SY5Y cells assessed as inhibition of t-BuOOH-induced intracellular oxidative stress by measuring ROS level at 10 uM preincubated for 24 hrs followed by t-BuOOH addition and measured after 30 mins by DCFH-DA dye-based fluorescence assay relative to control. Type of data set: functional.
Data set [9] concerns the target T1, 5-hydroxytryptamine receptor 4. The data set is described as follows: Displacement of [3H]-GR 113808 from recombinant human brain 5HT4 receptor at 10^-6 M measured after 60 mins by radio ligand binding assay relative to control.
Data set [10] has the same target. Put plainly: Displacement of [3H]-GR 113808 from recombinant human brain 5HT4 receptor at 10^-8 M measured after 60 mins by radio ligand binding assay relative to control.
In data set [11] the test system is SH-SY5Y. Put plainly: Cytotoxicity against human SH-SY5Y cells assessed as reduction in cell viability at 50 uM measured after 24 hrs by MTT assay relative to control. Type of data set: cell-based.
Data set [12] has as its system SH-SY5Y. Put plainly: Antioxidant activity in human SH-SY5Y cells assessed as inhibition of t-BuOOH-induced intracellular oxidative stress by measuring ROS level at 100 uM preincubated for 24 hrs followed by t-BuOOH addition and measured after 30 mins by DCFH-DA dye-based fluorescence assay. The class given is functional, cell-based.
In data set [13] the target is Acetylcholinesterase (Homo sapiens, UniProt P22303). The data set is described as follows: Inhibition of human erythrocytes AChE assessed as reduction in 5-thio-2-nitrobenzoate anion formation using acetylthiocholine iodide as substrate preincubated for 5 mins followed by substrate addition by Ellman's method.
In data set [14] the test system is SH-SY5Y. Put plainly: Cytotoxicity against human SH-SY5Y cells assessed as reduction in cell viability at 0.5 to 10 uM measured after 24 hrs by MTT assay. The class given is cell-based.

pEC50, pIC50, pKi: −log10 of the molar value. The source made the active and inactive calls. The calls are words filed in the database; no cut-off is given here.

What is called pIC50 is −log10 of the IC50, conventionally taken in molar units. The pEC50 is the EC50 on a negative log10 scale, so that one unit is a factor of ten. The Emax is the maximal effect, on the per cent scale that the assay sets. One may read the pKi as the negative decadic logarithm of the Ki, by convention in mol/L. By inhibition is commonly meant how much of the control response was suppressed.

T1 sequence (Q13639 whole entry): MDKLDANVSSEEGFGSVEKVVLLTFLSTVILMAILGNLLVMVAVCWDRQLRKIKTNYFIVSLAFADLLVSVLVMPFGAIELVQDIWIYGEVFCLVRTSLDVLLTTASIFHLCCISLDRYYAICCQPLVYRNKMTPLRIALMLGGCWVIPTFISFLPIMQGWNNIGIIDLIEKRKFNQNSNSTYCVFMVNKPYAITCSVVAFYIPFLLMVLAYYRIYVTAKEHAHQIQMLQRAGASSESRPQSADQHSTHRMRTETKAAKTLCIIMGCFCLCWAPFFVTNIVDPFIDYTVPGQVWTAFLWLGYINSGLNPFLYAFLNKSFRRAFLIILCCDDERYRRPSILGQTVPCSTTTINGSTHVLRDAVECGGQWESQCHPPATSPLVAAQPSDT
Acetylcholinesterase, sequence (P22303 whole entry): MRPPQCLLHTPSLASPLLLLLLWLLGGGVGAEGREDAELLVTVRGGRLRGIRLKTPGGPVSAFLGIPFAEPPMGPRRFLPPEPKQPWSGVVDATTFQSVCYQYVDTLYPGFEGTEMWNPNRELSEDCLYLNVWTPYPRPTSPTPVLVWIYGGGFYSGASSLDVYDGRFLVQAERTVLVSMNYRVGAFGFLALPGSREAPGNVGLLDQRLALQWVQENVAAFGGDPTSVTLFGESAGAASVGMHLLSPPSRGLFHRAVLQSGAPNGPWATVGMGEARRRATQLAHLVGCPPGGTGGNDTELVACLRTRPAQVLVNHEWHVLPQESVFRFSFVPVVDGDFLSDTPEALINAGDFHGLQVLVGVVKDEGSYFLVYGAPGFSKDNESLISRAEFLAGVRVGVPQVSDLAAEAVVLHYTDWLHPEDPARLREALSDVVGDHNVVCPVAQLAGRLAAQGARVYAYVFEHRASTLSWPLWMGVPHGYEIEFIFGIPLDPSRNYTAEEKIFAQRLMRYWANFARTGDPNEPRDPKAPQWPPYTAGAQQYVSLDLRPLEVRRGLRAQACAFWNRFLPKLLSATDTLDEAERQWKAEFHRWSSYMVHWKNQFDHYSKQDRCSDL

On to `COc1cc(/C=C/C(=O)NCCN2CCC(CCC(=O)c3cc(Cl)c(N)cc3OC)CC2)ccc1O`, for which the pIC50 in data set [1] was 7.00. The pEC50 in data set [2] was 8.35; in data set [3] it was 4.34. Further, in [4], the fold change (FC) was 1.47. The Activity in data set [5] came to 12%; in data set [11], 68%. In data set [6], the Emax turned out to be 47%. Also, the pKi in [7] is 7.00. Besides, in data set [8], the inhibition at 10 µM is 50%. Moreover, the inhibition in [9] is 100%; in [10] it was 39%.
For `NCCc1c[nH]c2ccc(O)cc12`, the inhibition in data set [9] is 65%; in data set [10], 0%.
Regarding `Cc1c(C)c2c(c(C)c1O)CCC(C)(C(=O)O)O2` (stereo not drawn) [TROLOX], the pEC50 in data set [3] is 4.64. For the same compound, in [12], the inhibition result was “Active”.
With `COc1cc(N)c(Cl)cc1C(=O)CCC1CCN(Cc2ccc(O)c(O)c2)CC1`, the results for the pIC50 in data set [1] and in data set [13] were 8.12 and 6.86, respectively. Also, the pEC50 in [2] was 8.55; in data set [3], 4.71. Besides, the fold change (FC) in data set [4] was 3.4. The Emax in data set [6] came out at 72%. In addition, the pKi in data set [7] was 8.23. Further, the Activity entry is reported as “Non-Toxic” in [14] and 37% in data set [11]. Also, the inhibition at 10 µM in [8] turned out to be 50%. The inhibition is 100% in data set [9] and 76% in data set [10].
For `COc1cc(N)c(Cl)cc1C(=O)CCC1CCN(CCNC(=O)CCCC[C@@H]2CCSS2)CC1`, the pEC50 in [3] is under 3.60. Also, the fold change (FC) in data set [4] worked out at 0.76. The values for the Activity entry in data set [14] and in data set [11] were “Non-Toxic” and 48%, respectively. Also, the inhibition entry in data set [8] is “inactive”. The inhibition worked out at 99% in data set [9] and 26% in [10].
Take `COc1cc(CN2CCC(CCC(=O)c3cc(Cl)c(N)cc3OC)CC2)ccc1OCc1ccccc1`: in data set [3], the pEC50 is under 3.60. Besides, the fold change (FC) in [4] is under 0.2. The inhibition was found to be 97% in [9] and 0% in data set [10].
The corresponding values for `COc1cc(N)c(Cl)cc1C(=O)CCC1CCN(Cc2ccc3c(c2)OCO3)CC1` are under 3.60, under 0.2, 100% and 22%.
As for `COc1cc(CN2CCC(CCC(=O)c3cc(Cl)c(N)cc3OC)CC2)ccc1O`, in data set [3], the pEC50 is 3.74. The fold change (FC) in data set [4] worked out at 3.88. Also, the pIC50 in data set [13] is 6.27. The figures for the inhibition in data set [9] and in data set [10] were 95% and 7%, respectively.
For `COc1cc(N)c(Cl)cc1C(=O)CCC1CCN(Cc2ccc(OCc3ccccc3)c(OCc3ccccc3)c2)CC1`, the pEC50 in data set [3] was under 3.60. The fold change (FC) in data set [4] was under 0.2. Also, the inhibition in data set [9] was found to be 89%; in data set [10] it was 3%.
As for `COc1ccc(CN2CCC(CCC(=O)c3cc(Cl)c(N)cc3OC)CC2)cc1OCc1ccccc1`, the pEC50 in [3] was under 3.60. The fold change (FC) in data set [4] was under 0.2. In addition, the inhibition in [9] was 88%; in [10], 7%.
In the case of `O=c1c(O)c(-c2ccc(O)c(O)c2)oc2cc(O)cc(O)c12` [QUERCETIN], the pEC50 in data set [3] is 5.03. For the same compound, the fold change (FC) in data set [4] amounted to 6.5.
Turning to `COc1ccc(CN2CCC(CCC(=O)c3cc(Cl)c(N)cc3OC)CC2)cc1O`, the pIC50 in data set [1] was 7.84. Besides, the pEC50 in data set [2] is 8.85; in data set [3], 4.07. Further, the fold change (FC) in data set [4] stood at 3.41. The Emax in [6] was found to be 57%. Besides, in [7], the pKi was 7.90. The figures for the Activity entry in data set [14] and in data set [11] were “Non-Toxic” and 40%, respectively. For the same compound, in data set [8], the inhibition at 10 µM was found to be 50%. Moreover, the inhibition in data set [9] worked out at 100%; in data set [10] it was 64%.

For the origin of these results see ChEMBL document CHEMBL4359885, “Novel multi target-directed ligands targeting 5-HT4 receptors with in cellulo antioxidant properties as promising leads in Alzheimer's disease” (Eur J Med Chem, 2019).
